Measurements as given in the Kinase Knowledgebase extract (Sharma et al. 2016).
pKi: −log10 of the molar value.

Molecular target: PIK3CG (human) (UniProt P48736)
Test: Inhibition of PIK3CG Kinase Activity

Chain of PIK3CG (human) (P48736 whole entry, looked up): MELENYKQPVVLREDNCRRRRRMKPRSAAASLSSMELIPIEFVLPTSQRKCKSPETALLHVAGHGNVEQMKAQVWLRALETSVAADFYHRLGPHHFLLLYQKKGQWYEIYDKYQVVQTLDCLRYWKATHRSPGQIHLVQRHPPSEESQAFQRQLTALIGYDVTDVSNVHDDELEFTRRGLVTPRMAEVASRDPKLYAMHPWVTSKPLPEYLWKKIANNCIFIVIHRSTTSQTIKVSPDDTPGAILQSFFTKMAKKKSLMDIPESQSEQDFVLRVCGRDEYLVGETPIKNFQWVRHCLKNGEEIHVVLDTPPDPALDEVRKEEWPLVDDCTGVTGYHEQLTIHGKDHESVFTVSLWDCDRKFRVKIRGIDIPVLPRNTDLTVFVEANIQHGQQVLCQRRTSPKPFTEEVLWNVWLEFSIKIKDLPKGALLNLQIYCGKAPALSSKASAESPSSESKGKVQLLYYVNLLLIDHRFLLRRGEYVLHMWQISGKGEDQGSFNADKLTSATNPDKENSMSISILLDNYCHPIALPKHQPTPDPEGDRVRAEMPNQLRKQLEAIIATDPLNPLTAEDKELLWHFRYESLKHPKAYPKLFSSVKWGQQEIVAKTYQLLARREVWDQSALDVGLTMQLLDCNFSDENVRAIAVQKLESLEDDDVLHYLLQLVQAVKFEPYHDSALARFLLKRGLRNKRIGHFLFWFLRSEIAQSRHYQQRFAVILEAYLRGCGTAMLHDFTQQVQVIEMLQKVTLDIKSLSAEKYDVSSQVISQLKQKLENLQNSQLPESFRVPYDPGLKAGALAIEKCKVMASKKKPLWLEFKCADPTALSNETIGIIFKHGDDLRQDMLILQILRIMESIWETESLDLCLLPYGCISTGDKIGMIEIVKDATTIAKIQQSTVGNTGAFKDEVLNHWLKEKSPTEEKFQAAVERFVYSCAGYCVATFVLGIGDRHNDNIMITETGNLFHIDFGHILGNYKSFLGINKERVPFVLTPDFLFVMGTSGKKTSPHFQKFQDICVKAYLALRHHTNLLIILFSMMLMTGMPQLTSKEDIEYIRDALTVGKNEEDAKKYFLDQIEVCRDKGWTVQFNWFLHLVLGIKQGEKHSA

| SMILES | pKi |
| --- | --- |
| CCn1ccc(N2C(=O)c3ccc(-c4cnc(OC)c(OC)c4)nc3[C@H]2C)n1 | > 7.00 |
| CCc1cncc(-c2cc(C)c3c(n2)C(C)(C)N(c2cnn(CC(F)(F)F)c2)C3=O)c1 | > 7.00 |
